Among the data in patent US10391095B2, “DNA-PK inhibitors” (Vertex Pharmaceuticals Incorporated, priority 2012, dated 2019) are Ki values, retold here.

For this assay, the target named is DNA-PK (Homo sapiens, UniProt P78527). Description: DNA-PK inhibition assay (radiometric, 33P-ATP). The format is biochemical. To be noted: 100 μM ATP, competitive tight-binding fit. The procedure, abridged: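 Approx. 6 nM DNA-PK with 10 µg/mL sheared dsDNA, 0.8 mg/mL peptide substrate and 100 µM 33P-ATP in HEPES pH 7.5, 10 mM MgCl2; 45 min, phosphoric acid quench. Phosphopeptide captured on filter plates and counted by scintillation; Ki from a competitive tight-binding model fit.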

As a reminder, the Ki is a measure of affinity in units of concentration, obtained from inhibition or displacement. Higher therefore signals weaker binding.

Structures are written as SMILES.

As for `CNC(=O)c1ccc([C@H](C)CNc2cc(-c3ccc(Nc4ccncc4)nc3)ncn2)c(OC)c1` [Compound 396], the Ki is < 30 nM.
Regarding `CNC(=O)c1ccnc2c([C@H](C)CNc3cc(-c4ccc(NS(C)(=O)=O)cc4)ncn3)cccc12` [Compound 680], the Ki was < 30 nM.
On to `CNC(=O)c1ccc([C@H](C)CNc2cc(-c3ccc(N(C)CCO)nc3)ncn2)c(OC)c1` [Compound 365], for which the Ki was < 30 nM.
Regarding `CNC(=O)c1ccnc2c([C@H](C)CNc3cc(-c4ccc(C)nc4)ncn3)ccnc12` [Compound 624], the Ki is < 30 nM.
Next, `COc1cc(C(=O)NC2CC2)ccc1C(C)CNc1cc(-c2ccc(C)nc2)ncn1` (stereo not drawn) [Compound 158]: < 30 nM; `CNC(=O)c1ccnc2c([C@H](C)CNc3cc(-c4ccc(C5(C#N)CC5)cc4)ncn3)cccc12` [Compound 681]: < 30 nM.
In the case of `CCNc1ncc(-c2cc(NC[C@@H](C)c3ccc(C(=O)NC)cc3OC)ncn2)cn1` [Compound 585], the Ki is < 30 nM.
As to `CNC(=O)c1ccnc2c([C@H](C)CNc3cc(-c4ccc(OC)nc4)ncn3)ccc(F)c12` [Compound 908], the inhibition constant (Ki) was < 30 nM.
With `COc1cc(C(=O)Nc2ccccc2)ccc1C(C)CNc1cc(-c2ccc(C)nc2)ncn1` (stereo not drawn) [Compound 377] the figure was < 30 nM; with `CNC(=O)c1ccc(C(C)CNc2cc(-c3ccc4c(cnn4C4COC4)c3C)ncn2)c(OC)c1` (stereo not drawn) [Compound 278], < 30 nM.
With `CNC(=O)c1ccnc2c([C@H](C)CNc3cc(-c4ccc(OC)c(F)c4)ncn3)cccc12` [Compound 823], the inhibition constant Ki is < 30 nM.
Next, `C[C@H](CNc1cc(-c2cnc3c(cnn3C)c2)ncn1)c1ccnc2c1OCC2` [Compound 438]: < 30 nM; `CNC(=O)c1ccnc2c([C@H](C)CNc3cc(-c4cnc(OC)c(OC)c4)ncn3)cccc12` [Compound 592]: < 30 nM.
On to `COc1ccccc1[C@H](C)CNc1cc(-c2ccc(C)nc2)ncn1` [Compound 55], for which the Ki is < 30 nM.
Next, `CCOc1ccc(-c2cc(NC[C@@H](C)c3cccc4c(C(=O)NC)c(F)cnc34)ncn2)cn1` [Compound 932]: < 30 nM; `CNC(=O)c1ccnc2c([C@H](C)CNc3cc(-c4cnc(OC)c(OC)c4)ncn3)ccc(F)c12` [Compound 906]: < 30 nM.
With `CNC(=O)c1c(F)cnc2c([C@H](C)CNc3cc(-c4cnn(C)c4)ncn3)cccc12` [Compound 783] the figure was < 30 nM.
With `COc1ncc(-c2cc(NC[C@@H](C)c3ccnc4c3OCC4)ncn2)cc1N` [Compound 589] the figure was < 30 nM; with `CNC(=O)c1cc(C)nc2c([C@H](C)CNc3cc(-c4ccc(C)nc4)ncn3)cccc12` [Compound 484], < 30 nM.
As to `COc1ccccc1[C@H](C)CNc1cc(-c2ccnc(NCCO)c2)ncn1` [Compound 119], the Ki is < 30 nM.
Next, `[2H]c1nc(C)nc([2H])c1-c1cc(NC[C@@H](C)c2cccc3c(C(=O)NC)c(F)cnc23)ncn1` [Compound 862]: < 30 nM.
With `COc1ccsc1C(C)CNc1cc(-c2cnc3c(cnn3CCO)c2)ncn1` (stereo not drawn) [Compound 233] the figure was < 30 nM.
On to `CNC(=O)c1ccnc2c([C@H](C)CNc3cc(-c4ccc(NC(C)=O)cc4)ncn3)cccc12` [Compound 749], for which the inhibition constant Ki is < 30 nM.
As for `CC(=O)c1ccc(-c2cc(NC[C@@H](C)c3ccnc4c3OCCO4)ncn2)cc1` [Compound 456], the inhibition constant (Ki) was < 30 nM.
Next, `CNC(=O)c1ccnc2c([C@H](C)CNc3cc(-c4cnc(C#N)c(OC)c4)ncn3)ccc(F)c12` [Compound 923]: < 30 nM.
Next, `COCCn1ncc2cc(-c3cc(NCC(C)c4ccc(C(=O)NCC(F)(F)F)cc4OC)ncn3)cnc21` (stereo not drawn) [Compound 220]: < 30 nM; `CCc1ncc(-c2cc(NC[C@@H](C)c3ccc(F)c4c(C(=O)NC)ccnc34)ncn2)cn1` [Compound 830]: < 30 nM.
Next, `C[C@H](CNc1cc(-c2cnc3c(cnn3C3CNC3)c2)ncn1)c1ccnc2c1OCCO2` [Compound 527]: < 30 nM; `CNC(=O)c1ccnc2c([C@H](C)CNc3cc(-c4cnc(C(F)(F)F)nc4)ncn3)cccc12` [Compound 957]: < 30 nM.
With `CNC(=O)c1c(F)cnc2c([C@H](C)CNc3cc(-c4cnnc(C)c4)ncn3)cccc12` [Compound 968], the Ki is < 30 nM.
With `CNC(=O)c1ccc([C@H](C)CNc2cc(-c3ccc(C(=O)NC4CC4)cc3)ncn2)c(OC)c1` [Compound 318] the figure was < 30 nM; with `CNCCNc1ccc(-c2cc(NC[C@@H](C)c3cccc4c(C(=O)NC)ccnc34)ncn2)cn1` [Compound 584], < 30 nM.
Turning to `CNC(=O)c1ccc(C(C)CNc2cc(-c3cc4cnn(C5COC5)c4cc3C)ncn2)c(OC)c1` (stereo not drawn) [Compound 283], the inhibition constant (Ki) was < 30 nM.
Take `COc1ccc(C(C)CNc2cc(-c3ccc(C)nc3)ncn2)c(N)n1` (stereo not drawn) [Compound 642]: the inhibition constant Ki is < 30 nM.
On to `COc1ccccc1CCNc1cc(-c2cnc3c(cnn3CS(C)(=O)=O)c2)ncn1` [Compound 97], for which the inhibition constant Ki is < 30 nM.
Turning to `CNC(=O)c1ccc(C(C)CNc2cc(-c3cnc4c(cnn4CCOC)c3)ncn2)c(OC)c1` (stereo not drawn) [Compound 154], the inhibition constant Ki was < 30 nM.
With `CCCNc1ccc(-c2cc(NC[C@@H](C)c3ccc(C(=O)NC)cc3OC)ncn2)cn1` [Compound 361] the figure was < 30 nM; with `CNC(=O)c1ccnc2c([C@H](C)CNc3cc(-c4cnc5c(c4)COC5)ncn3)cccc12` [Compound 952], < 30 nM.
Next, `CNC(=O)c1c(F)cnc2c([C@H](C)CNc3cc(-c4ccc(OC)nc4)ncn3)cccc12` [Compound 900]: < 30 nM; `CNc1ncc(-c2cc(NC[C@@H](C)c3cc(C)nc4c3OCC4)ncn2)cn1` [Compound 574]: < 30 nM; `CCOc1cc(-c2cc(NC[C@@H](C)c3cccc4c(C(=O)NC)ccnc34)ncn2)ccn1` [Compound 962]: < 30 nM.
With `COC(=O)c1ccc(OC)c(C(C)CNc2cc(-c3ccc(C)nc3)ncn2)c1` (stereo not drawn) [Compound 250] the figure was < 30 nM; with `CCc1ncc(-c2cc(NC[C@@H](C)c3cccc4c(C(=O)NC)ccnc34)ncn2)cn1` [Compound 829], < 30 nM; with `CCOc1ncc(-c2cc(NC[C@@H](C)c3cccc4c(C(=O)NC)ccnc34)ncn2)cc1C` [Compound 950], < 30 nM.
With `CNC(=O)c1ccnc2c([C@H](C)CNc3cc(-c4cncc(N5CCOCC5)c4)ncn3)ccc(F)c12` [Compound 915], the Ki was < 30 nM.
With `CNC(=O)c1ccnc2c([C@H](C)CNc3cc(-c4ccc5ncccc5c4)ncn3)cccc12` [Compound 582], the Ki was < 30 nM.
Regarding `CNC(=O)c1ccc(C(C)CNc2cc(-c3ccc4c(cnn4CCO)c3)ncn2)c(OC)c1` (stereo not drawn) [Compound 246], the inhibition constant Ki was < 30 nM.
With `CNC(=O)c1ccnc2c([C@H](C)CNc3cc(-c4cncc(-c5nnco5)c4)ncn3)cccc12` [Compound 960] the figure was < 30 nM.
Next, `CC(CNc1cc(-c2cnc3c(cnn3C3COC3)c2)ncn1)c1cncc2c1OCC2` (stereo not drawn) [Compound 420]: < 30 nM; `CCOc1ccc(-c2cc(NC[C@@H](C)c3ccc(F)c4c(C(=O)NC)ccnc34)ncn2)cn1` [Compound 934]: < 30 nM.
Next, `CNC(=O)c1ccnc2c([C@H](C)CNc3cc(-c4ccc(N5CCN(C(C)=O)CC5)nc4)ncn3)cccc12` [Compound 614]: < 30 nM.
